According to patent publication US10039741B2, “Use of delta tocopherol for the treatment of lysosomal storage disorders” (The United States of America, as represented by the …, priority 2010, dated 2018):
“Also recorded” adds a separate entry of the source.

How the values were obtained:
[1] = human plasma, physiological level; cited from earlier work
NPCD MSC cells [2] = assay: Free cholesterol accumulation; assay type: cell-based, human
Description: (§1) The adipose mesenchymal stem cells (HMSC.AD-100, HMSC-NPC22 and HMSC-NPC23) were isolated from two NPC patients as well as one heath individual and provided by Celleng-tech (Coralville, Iowa). These cells were maintained in MSC expansion media (Celleng-tech, cat# HMSC.E.Media-450) supplemented with 10% FBS 100 unit/ml penicillin and 100 μg/ml streptomycin at 5% CO2, 37° C. For neural differentiation, cells were initially plated at 30% confluency (˜2500 cells/cm^2) using MSC expansion media. After 24 hours, MSC expansion media were withdrew. Cells were washed twice with Dulbecco's phosphate Buffer saline (Invitrogen) and incubated with neural differentiation media (Celleng-tech, cat# NEU.D.Media-450) supplemented with 10% FBS, 100 unit/ml penicillin and 100 μg/ml streptomycin at 5% CO2, 37° C. for additional 3 days.
MSC cells were seeded on coverslips on day 0 in MSC expansion medium. On day 1, cells were washed twice with warm PBS buffer and then incubated with MSC neuronal differentiation medium. On day 4, media were replaced with fresh neuronal differentiation medium. On day 6, cells were fixed with 3.2% paraformaldehyde in HBSS for 15 min. Immunocytochemistry for neuronal beta III tubulin and unesterified cholesterol (filipin staining) was performed as described. The coverslips were examined y a XXX microscope. […]

[3] = tested on: Niemann Pick type A disease fibroblasts; assay: Lysotracker staining assay; assay type: cell-based, human
NPCD MSC cells [4] = assay: Lysosome size; assay type: cell-based, human
Description: as §1

neuron-like NPCD cells = assay: Lysosome size; assay type: cell-based, human; conditions: neuron-like cells differentiated from NPCD patient MSC
Description: as §1

wild type cells = assay: Lipid measurement by mass spectrometry (GC/MS); assay type: cell-based, human
Description: (§2) Effects of δ-tocopherol and α-tocopherols on (FIG. 4A) free cholesterol, (FIG. 4B) cholesterol ester and (FIG. 4C) sphingomyelin in NPC cells. NPC or WT cells were treated with DMSO, 80 μM α-tocopherol or 40 uM δ-tocopherol for 5 days. Cell pellets were collected and extracted for lipids. FC EC and sphingomyelin levels were measured by GC/MS. (FIG. 4D) Effects of δ-tocopherols and α-tocopherols on cholesterol efflux.
(§3) Cell pellets were collected from 100-mm dishes and washed once with 10 ml PBS. Proteins were assayed using the BCA kit (Sigma-Aldrich) and lipids were extracted by modified Bligh and Dyer procedure (29) from the cells. Internal standards were added based on protein concentration that included N12:0 sphingomyelin, D7-cholesterol, 17:0 cholesterol ester (Avanti Polar Lipids, Inc). A portion of the lipid extract was used for detection of sphingomyelins using direct infusion mass spectrometric assay with lithium hydroxide for facilitating ionization and the rest was used to convert cholesterol and its ester into acetate by derivatization. The derivatization was performed by treating the dried crude lipid extract with solutions of 1 M acetic acid with 1 M DMAP in chloroform and 1 M EDC in chloroform at 50° C. for 2 hours. The derivatized product was extracted with hexane and analyzed by direct infusion mass spectrometric assay with 5% ammonium hydroxide for facilitating ionization.
(§4) A triple-quadrupole mass spectrometer equipped with an electrospray was used for analysis of lipids in positive mode. Sphingomyelins, cholesterol and cholesterol esters were detected by neutral loss scan of 213 (collision energy: 50 V), neutral loss scan of 77 (collision energy: 14 V) and precursor ion scan of m/z 369 (collision energy: 14 V) respectively. Data processing of mass spectrometric analyses including ion peak selection, data transferring, peak intensity comparison and quantitation was conducted using self-programmed Microsoft Excel macros (30).

NPC fibroblasts [5] = assay: Lipid measurement by mass spectrometry (GC/MS); assay type: cell-based, human; conditions: 80 μM α-tocopherol or 40 uM δ-tocopherol for 5 days
Description: as §2, §3, §4

NPC fibroblasts [6] = assay: Microarray gene expression; assay type: cell-based, human; design: HMGCR expression, Toco treat NPC / SC4MOL expression, Toco treat NPC / DHCR7 expression, Toco treat NPC / MMP3 expression, Toco treat NPC: unit not given here; conditions: 40 μM delta-tocopherol 5 days vs DMSO-treated
Description: Five NPC fibroblast cell lines as well as five normal fibroblast cell lines were treated with 40 μM delta-tocopherol for 5 days with a medium change and sully of fresh compound on 3rd day. The total RNAs was prepared as the standard method described previously ( ). The microarray gene expression experiment was carried out in a core microarray facility at NHGRI with a set of AAAAA chips (Affymetrix). Partek Genomics Software Suite (Copyright, Partek Inc.) was used to perform analysis of microarray data. Affymetrix cell files were loaded into the software using the RMA algorithm, which involved background correction, quantile normalization, log-2 transformation, and median polish summarization. PCA and hierarchical clustering identified one sample as an outlier. This sample (sample number 12) was not considered for further analysis. ANOVA was performed to identify the differentially expressed genes for three comparisons: 1) NPC_DMSO vs WT_DMSO 2) NPC tocopherol-treated vs NPC_DMSO-treated and 3) WT_tocopherol-treated vs WT_DMSO-treated.

[7] = tested on: Farber disease fibroblasts; assay: Lysotracker staining assay; assay type: cell-based, human
[8] = wild type cells, 80 μM α-tocopherol or 40 uM δ-tocopherol for 5 days

Structure (SMILES): Cc1cc(O)cc2c1O[C@](C)(CCC[C@H](C)CCC[C@H](C)CCCC(C)C)CC2 [δ-tocopherol]
- plasma concentration [1]: ~0.1 µM
- accumulated free cholesterol (NPCD MSC cells [2]): reduction of accumulated free cholesterol
- size of enlarged lysosomes [3]: significantly reduced
- lysosome size (NPCD MSC cells [4]): decrease in lysosome size
- lysosome size (neuron-like NPCD cells): decrease in lysosome size
- free cholesterol level (wild type cells; normal (WT) cells, 5 days): reduced slightly
- amount of cholesterol ester (wild type cells; [8]): significantly reduced
- sphingomyelin amount (wild type cells; [8]): not significantly changed
- amount of cholesterol ester (NPC fibroblasts [5]; NPCD cells): significantly reduced
- sphingomyelin amount (NPC fibroblasts [5]; NPCD cells): not significantly changed
- free cholesterol level (NPC fibroblasts [5]; NPCD fibroblasts): nearly recovered to the normal level as in the wild type cells
- ABCA1 expression, Toco treat NPC (NPC fibroblasts [6]): significantly reduced; also recorded: decreased expression
- ACACA expression, Toco treat NPC (NPC fibroblasts [6]): −1.5
- DHCR7 expression, Toco treat NPC (NPC fibroblasts [6]): −1.7
- FADS2 expression, Toco treat NPC (NPC fibroblasts [6]): −2.5
- FRRS1 expression, Toco treat NPC (NPC fibroblasts [6]): 1.1
- HMGCR expression, Toco treat NPC (NPC fibroblasts [6]): decreased
- HMGCS1 expression, Toco treat NPC (NPC fibroblasts [6]): −1.9
- INSIG1 expression, Toco treat NPC (NPC fibroblasts [6]): −1.8
- LDLR expression, Toco treat NPC (NPC fibroblasts [6]): significantly reduced; also recorded: decreased expression
- MMP1 expression, Toco treat NPC (NPC fibroblasts [6]): 2.7
- MMP3 expression, Toco treat NPC (NPC fibroblasts [6]): 1.7
- NOX4 expression, Toco treat NPC (NPC fibroblasts [6]): −1.1
- SC4MOL expression, Toco treat NPC (NPC fibroblasts [6]): −1.4
- SCD expression, Toco treat NPC (NPC fibroblasts [6]): decreased
- SREBF1 expression, Toco treat NPC (NPC fibroblasts [6]): −1.4
- SREBF2 expression, Toco treat NPC (NPC fibroblasts [6]): −1.6
- ABCA1 expression, Toco treat NPC (NPC fibroblasts [6]; listed as tocopherol): −2.0
- HMGCR expression, Toco treat NPC (NPC fibroblasts [6]; listed as tocopherol): −1.7
- LDLR expression, Toco treat NPC (NPC fibroblasts [6]; listed as tocopherol): −2.0
- SCD expression, Toco treat NPC (NPC fibroblasts [6]; listed as tocopherol): −3.9
- size of enlarged lysosomes [7]: significantly reduced
